The record followed here is patent publication US6706716B2, “Compounds specific for the human α1d adrenergic receptor and uses thereof” (Synaptic Pharmaceutical Corporation, priority 1998, dated 2004).

Experiment [1] relates to urethane-anesthetized rats. As to the kind of experiment: Blood pressure in urethane-anesthetized, normotensive rats. Type of experiment: in vivo, rat. The method, then: Rats were anesthetized with urethane and PE50 cannulae were placed in the femoral artery and vein for blood pressure monitoring and drug administration, respectively. After stabilization, rats were administered 200 μl saline vehicle or increasing doses of BMY 7378 or Compound 7 at 10 minutes intervals until the reduction in blood pressure reached a plateau. The 5-HT1A-selective antagonist WAY 100635 (1 mg/kg) was then administered and blood pressure monitored for an additional 10 minutes.

The target in experiment [2] is T1, human α1a adrenergic receptor (Homo sapiens, UniProt P35348).
T1 construct: The entire coding region of α1a (1401 bp); expressed in transfected cells
T1 sequence (P35348 1-466): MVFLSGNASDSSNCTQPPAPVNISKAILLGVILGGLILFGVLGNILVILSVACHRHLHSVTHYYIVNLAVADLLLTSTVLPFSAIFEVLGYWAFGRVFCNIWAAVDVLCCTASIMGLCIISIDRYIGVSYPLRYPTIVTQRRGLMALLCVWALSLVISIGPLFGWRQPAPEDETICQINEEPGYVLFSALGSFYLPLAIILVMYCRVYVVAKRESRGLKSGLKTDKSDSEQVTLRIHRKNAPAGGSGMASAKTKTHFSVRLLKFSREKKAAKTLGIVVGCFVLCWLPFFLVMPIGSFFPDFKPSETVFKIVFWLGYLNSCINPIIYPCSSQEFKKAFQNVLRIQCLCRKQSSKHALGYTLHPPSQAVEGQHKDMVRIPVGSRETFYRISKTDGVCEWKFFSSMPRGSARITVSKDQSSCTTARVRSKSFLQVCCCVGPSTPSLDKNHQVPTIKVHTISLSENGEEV
As to the kind of experiment: Radioligand binding ([3H]prazosin) at cloned human α1a adrenergic receptor. The settings on record: LM(tk-) cell membranes, read-out: Binding affinities (pKi) α1a (converted). The protocol: (§1) First, conditions were determined which allowed measurement of the specific binding of a compound known to bind to the receptor. Then, the binding of the known compound to the receptor in membrane preparations was evaluated in the presence of several different concentrations of the test compound.
(§2) These cell lines were prepared by transfecting the cloned cDNA or cloned genomic DNA or constructs containing both genomic DNA and cDNA encoding the human receptors as described below.
The construct involved ligating three partial overlapping fragments: a 5′0.6 kb HincII genomic clone, a central 1.8 EcoRI hippocampal cDNA clone, and a 3′0.6 Kb PstI genomic clone. The hippocampal cDNA fragment overlaps with the 5′ and 3′ genomic clones so that the HincII and PstI sites at the 5′ and 3′ ends of the cDNA clone, respectively, were utilized for ligation. This full-length clone was cloned into the KpnI site of the expression vector, using the 5′ and 3′ KpnI sites of the fragment, derived from vector (i.e., pBluescript) and 3′-untranslated sequences, respectively. Stable cell lines were selected as described above. Membranes were harvested and assayed for their ability to bind [^3H]prazosin as described below (see Radioligand Binding assays).
(§3) Radioligand Binding Assays for α1 Human Adrenergic Receptors: Transfected cells from culture flasks were scraped into 5 ml of 5 mM Tris-HCl, 5 mM EDTA, pH 7.5, and lysed by sonication. The cell lysates were centrifuged at 1000 rpm for 5 min at 4° C., and the supernatant was centrifuged at 30,000×g for 20 min at 4° C. The pellet was suspended in 50 mM Tris-HCl, 1 mM MgCl2, and 0.1% ascorbic acid at pH 7.5. Binding of the α1, antagonist [^3H]prazosin (0.5 nM, specific activity 76.2 Ci/mmol) to membrane preparations of LM(tk-) cells was done in a final volume of 0.25 ml and incubated at 37° C. for 1 hour. Nonspecific binding was determined in the presence of 10 μM phentolamine. The reaction was stopped by filtration through GF/B filters using a cell harvester.

Experiment [3] concerns the target T2, human α1d adrenergic receptor (Homo sapiens, UniProt P25100).
T2 construct: The entire coding region. of α1d (1719 bp); expressed in transfected cells
T2 sequence (P25100 1-572): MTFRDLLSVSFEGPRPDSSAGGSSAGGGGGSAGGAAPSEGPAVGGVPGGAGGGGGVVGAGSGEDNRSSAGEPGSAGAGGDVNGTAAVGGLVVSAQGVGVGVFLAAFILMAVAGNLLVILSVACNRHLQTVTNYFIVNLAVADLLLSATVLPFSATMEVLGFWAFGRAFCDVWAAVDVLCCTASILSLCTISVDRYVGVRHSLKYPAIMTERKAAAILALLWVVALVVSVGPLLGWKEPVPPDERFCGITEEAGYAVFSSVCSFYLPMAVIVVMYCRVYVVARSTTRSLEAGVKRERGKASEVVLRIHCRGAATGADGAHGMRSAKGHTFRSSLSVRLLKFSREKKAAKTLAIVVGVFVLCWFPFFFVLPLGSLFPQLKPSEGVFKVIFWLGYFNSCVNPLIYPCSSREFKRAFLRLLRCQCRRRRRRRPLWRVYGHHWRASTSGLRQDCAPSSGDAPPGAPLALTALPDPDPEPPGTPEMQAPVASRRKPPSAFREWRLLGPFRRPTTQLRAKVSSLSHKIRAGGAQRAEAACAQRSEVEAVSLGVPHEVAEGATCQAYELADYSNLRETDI
As to the kind of experiment: Radioligand binding ([3H]prazosin) at cloned human α1d adrenergic receptor. The settings on record: LM(tk-) cell membranes, read-out: Binding affinities (pKi) α1d (converted). The protocol:
as §1, §2
α1d Human Adrenergic Receptor: The entire coding region. of α1d (1719 bp), including 150 base pairs of 5′ untranslated sequence (5′ UT) and 300 bp of 3′ untranslated sequence (3′ UT), was cloned into the BamHI and ClaI sites of the polylinker-modified eukaryotic expression vector pCEXV-3, called EXJ.HR. The construct involved the ligation of partial overlapping human lymphocyte genomic and hippocampal cDNA clones: 5′ sequence were contained on a 1.2 kb SmaI-XhoI genomic fragment (the vector-derived BamHI site was used for subcloning instead of the internal insert-derived SmaI site) and 3′ sequences were contained on a 1.3 kb XhoI-ClaI cDNA fragment (the ClaI site was from the vector polylinker). Stable cell lines were obtained by cotransfection with the plasmid α1A/EXJ (expression vector containing the α1a receptor gene (old nomenclature)) and the plasmid pGCcos3neo (plasmid containing the aminoglycoside transferase gene) into LM(tk-) cells using the calcium phosphate technique. The cells were grown, in a controlled environment (37° C., 5% CO2), as monolayers in Dulbecco's modified Eagle's Medium (GIBCO, Grand Island, N.Y.) containing 25 mM glucose and supplemented with 10% bovine calf serum, 100 units/ml penicillin g, and 100 μg/ml streptomycin sulfate. Stable clones were then selected for resistance to the antibiotic G-418 (1 mg/ml), and membranes were harvested and assayed for their ability to bind [^3H]prazosin as described below (see Radioligand Binding assays).
The cell line expressing the human α1d receptor used herein was designated L-α1A (old nomenclature) and was deposited with the American Type Culture Collection, 12301 Parklawn Drive, Rockville, Md. 20852, U.S.A. under the provisions of the Budapest Treaty for the International Recognition of the Deposit of Microorganisms for the Purposes of Patent Procedure. The cell line expressing the human α1d receptor, was accorded ATCC Accession No. CRL 11138, and was deposited on Sep. 25, 1992.
as §3

Experiment [4] has as its target T3, human α1b adrenergic receptor (Homo sapiens, UniProt P35368).
T3 construct: The entire coding region of α1b (1563 bp); expressed in transfected cells
T3 sequence (P35368 1-520): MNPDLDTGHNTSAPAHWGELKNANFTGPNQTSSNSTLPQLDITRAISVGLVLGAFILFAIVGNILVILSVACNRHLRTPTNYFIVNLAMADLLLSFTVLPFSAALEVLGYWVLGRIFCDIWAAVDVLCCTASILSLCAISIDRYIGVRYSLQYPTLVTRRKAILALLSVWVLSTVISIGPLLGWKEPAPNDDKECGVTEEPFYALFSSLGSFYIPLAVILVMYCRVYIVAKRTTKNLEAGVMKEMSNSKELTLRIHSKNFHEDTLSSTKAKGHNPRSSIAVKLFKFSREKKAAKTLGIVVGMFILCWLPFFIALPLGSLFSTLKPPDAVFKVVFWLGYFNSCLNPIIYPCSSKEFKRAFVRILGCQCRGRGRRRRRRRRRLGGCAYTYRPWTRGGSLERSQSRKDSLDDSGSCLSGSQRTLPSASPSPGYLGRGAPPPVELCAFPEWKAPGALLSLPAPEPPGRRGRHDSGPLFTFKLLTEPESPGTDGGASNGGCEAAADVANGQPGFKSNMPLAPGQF
The experiment in a line: Radioligand binding ([3H]prazosin) at cloned human α1b adrenergic receptor. The settings on record: LM(tk-) cell membranes, read-out: Binding affinities (pKi) α1b (converted). The method, then:
as §1, §2
α1b Human Adrenergic Receptor: The entire coding region of α1b (1563 bp), including 200 base pairs of 5′ untranslated sequence (5′ UT) and 600 bp of 3′ untranslated sequence (3′ UT), was cloned into the EcoRI site of pCEXV-3 eukaryotic expression vector. The construct involved ligating the full-length EcoRI brainstem cDNA fragment from λ ZapII into the expression vector. Stable cell lines were selected as described above. Membranes were harvested and assayed for their ability to bind [^3H]prazosin as described below (see Radioligand Binding assays). The cell line used herein was designated L-α1B and was deposited with the American Type Culture Collection, 12301 Parklawn Drive, Rockville, Md. 20852, U.S.A. under the provisions of the Budapest Treaty for the International Recognition of the Deposit of Microorganisms for the Purposes of Patent Procedure. The cell line L-α1B was accorded ATCC Accession No. CR 11139, on Sep. 29, 1992.
as §3

As to `COc1ccccc1N1CCN(CCN2C(=O)CC3(CCCC3)CC2=O)CC1` [BMY 7378, reference compound], in experiment [1] (5-HT1A-selective antagonist WAY 100635 1 mg/kg given after plateau), the “reversal of the blood pressure effect by WAY 100635” value is recorded as “reversed”. The “effect on systolic, diastolic and mean blood pressure” value in experiment [1] (urethane-anesthetized rats, increasing i.v. doses at 10 min intervals) was “dose-dependent reduction”.
Consider `C[C@@H](CN1CCN(c2cc(F)c(F)cc2F)CC1)N1C(=O)CC2(CCCC2)CC1=O` [Compound 11, 8-{(1S)-2-[4-(2,4,5-Trifluorophenyl)piperazin-1-yl]-1-methylethyl}-8-azaspiro[4.5]decane-7,9-dione], for which the results for the Ki in experiment [2] and in experiment [3] were 12600 nM and 126 nM, respectively.
In the case of `O=C1CC2(CCCC2)CC(=O)N1CCN1CCN(c2ccccc2F)CC1` [Compound 20, 8-{2-[4-(2-Fluorophenyl)piperazin-1-yl]ethyl}-8-azaspiro[4.5]decane-7,9-dione], the Ki was 63.1 nM in experiment [4] and 631 nM in experiment [2].
`C[C@H](CN1CCN(c2cc(F)c(F)cc2F)CC1)N1C(=O)CC2(CCCC2)CC1=O` [Compound 9, 8-{(1R)-2-[4-(2,4,5-Trifluorophenyl)piperazin-1-yl]-1-methylethyl}-8-azaspiro[4.5]decane-7,9-dione]: the figures for the Ki in experiment [2] and in experiment [3] were 15800 nM and 1.26 nM, respectively.
Turning to `O=C1CC2(CCCC2)CC(=O)N1[C@@H](CN1CCN(c2cc(F)c(F)cc2F)CC1)c1ccccc1` [Compound 16, 8-{(1R)-1-Phenyl-2-[4-(2,4,5-trifluorophenyl)piperazino]ethyl}-8-azaspiro[4.5]decane-7,9-dione], the results for the Ki in experiment [2] and in experiment [3] were 7940 nM and 79.4 nM, respectively.
For `O=C1CC2(CCCC2)CC(=O)N1[C@H](Cc1ccccc1)CN1CCN(c2cc(F)c(F)cc2F)CC1` [Compound 17, 8-{(1R)-1-Benzyl-2-[4-(2,4,5-trifluorophenyl)piperazino]ethyl}-8-azaspiro[4.5]decane-7,9-dione], the Ki in experiment [2] was 10000 nM; in experiment [3] it was 79.4 nM.
